The values that follow come from US8513010B2, “Dendritic cells pulsed with a bisphosphonate” (Medinet Co. Ltd., priority 2004, dated 2013).

The subject of test [1] is γδ T-cells. The experiment in a line: IFN-γ ELISpot confirming activation of γδ T-cells (Example 5). It is filed as cell-based, human. As to conditions: 30,000 γδ T-cells + 15,000 immature or mature dendritic cells + Aredia 10 μM, versus γδ T-cells alone, γδ T-cells with Aredia only, FIG. 2. As to the method:
In each well of a MultiScreen plate (Millipore), 70% ethanol was added and removed within two minutes.
An anti-interferon(IFN)-γ antibody for coating (clone: 1-D1K, MABTECH ELISpot for Human Interferon-γ kit) was diluted with PBS to 15 μg/ml, and added 100 μl/well.
The γδ T-cells obtained in Example 4 were collected by centrifugation and washed twice with AIM-V.
To 30,000 of the γδ T-cells collected, and 15,000 of the immature or mature dendritic cells obtained in Example 1 Aredia, prepared to have a final concentration of 10 μM, was added, and precultivated in a 15 ml tube (Falcon) under the conditions of 37° C. and 5% CO2 for two hours. At the same time, precultivation of γδ T-cells by themselves, precultivation of γδ T-cells with only Aredia added thereto, and precultivation of the respective dendritic cells by themselves were also conducted. Each culture volume was adjusted to 300 μl.
The plate was washed with PBS after blocking, and each group of cells which completed precultivation under the respective conditions was disseminated in three wells, 100 μl/well.
They were cultured overnight under the conditions of 37° C. and 5% CO2. […]
After confirming that the membrane on the plate was dry, the number of spots was measured using an ELISpot reader (AID Autoimmune Diagnostika GmbH), and the data was analyzed using the AID software version 3.1 (AID).

Test [2] concerns γδ T-cells. The experiment in a line: Culture of peripheral blood mononuclear cells with Aredia and IL-2, phenotype by flow cytometer (Example 4). Particulars: peripheral blood monocyte suspension, Aredia 10 μM, IL-2 1,000 U/ml, cultivated 14 days. It is filed as cell-based, human. As to the method: From a healthy donor 30 ml of peripheral blood was collected, and peripheral blood mononuclear cells were collected using a density gradient medium for blood cell separation. The cells collected were washed several times to remove platelets and the like.
The peripheral blood monocytes obtained were suspended in AIM-V medium (10% FCS), and Aredia was added so that the concentration in the peripheral blood monocyte suspension was 10 μM.
This was cultivated for 14 days. During this period, AIM-V (10% FCS) medium and IL-2, at a final concentration of 1,000 U/ml, were added in accordance with the cell proliferation.
Using a flow cytometer, the phenotype of the cells cultured was confirmed to be a cell subset containing at least 95% of γδ T-cells.

Structures are written as SMILES.

For the compound `NCCC(O)(P(=O)([O-])O)P(=O)([O-])O.O.O.O.O.O.[Na+].[Na+]` [Aredia, pamidronate disodium pentahydrate], in test [1], the “number of spots (IFN-γ ELISpot)” value is “increased only when the dendritic cells and Aredia were added simultaneously to the γδ T-cells”; the “spot intensity (IFN-γ ELISpot)” value was “increased only when the dendritic cells and Aredia were added simultaneously to the γδ T-cells”. Also, in test [2], the “γδ T-cells in the cultured cell subset” value was “at least 95%”.
